Measurements taken from the NIST ThermoML archive (doi:10.1016/j.jct.2007.06.014).
Numbers after ± are expanded uncertainties.

Test: xn = mol fraction of the nth substance listed
Settings: Liquid, Bellows volumetry

CCCC [butane] + CCC
mass density [kg/m3]
Settings | 280 K | 300 K | 320 K | 340 K | 360 K
1000 kPa, x2 = 0.2729 | 578.83 ± 1 | – | 528 ± 0.95 | – | –
1000 kPa, x2 = 0.5021 | 563.28 ± 1 | 537.32 ± 0.97 | – | – | –
1000 kPa, x2 = 0.7308 | 546.41 ± 0.99 | – | – | – | –
2000 kPa, x2 = 0.2729 | 580.29 ± 1.1 | – | 530.61 ± 0.96 | – | 467.01 ± 0.84
2000 kPa, x2 = 0.5021 | 564.88 ± 1 | 539.48 ± 0.97 | 511.85 ± 0.92 | 479.55 ± 0.87 | –
2000 kPa, x2 = 0.7308 | 548.19 ± 0.99 | – | 489.94 ± 0.89 | – | –
3000 kPa, x2 = 0.2729 | 581.81 ± 1.1 | – | 533.12 ± 0.96 | – | 472.48 ± 0.86
3000 kPa, x2 = 0.5021 | 566.5 ± 1 | 541.56 ± 0.98 | 514.73 ± 0.93 | 483.91 ± 0.88 | 445.79 ± 0.81
3000 kPa, x2 = 0.7308 | 550.07 ± 0.99 | – | 493.41 ± 0.89 | – | 409.73 ± 0.75
5000 kPa, x2 = 0.2729 | 584.56 ± 1.1 | – | 537.8 ± 0.97 | – | 481.94 ± 0.87
5000 kPa, x2 = 0.5021 | 569.65 ± 1 | 545.62 ± 0.98 | 519.99 ± 0.94 | 491.54 ± 0.89 | 458.29 ± 0.83
5000 kPa, x2 = 0.7308 | 553.51 ± 1 | – | 499.74 ± 0.9 | – | 428.83 ± 0.78
10000 kPa, x2 = 0.2729 | 591.21 ± 1.1 | – | 548.01 ± 0.99 | – | 499.9 ± 0.9
10000 kPa, x2 = 0.5021 | 576.66 ± 1 | 554.42 ± 1 | 531.57 ± 0.96 | 506.78 ± 0.91 | 480.01 ± 0.87
10000 kPa, x2 = 0.7308 | 561.23 ± 1 | – | 512.85 ± 0.93 | – | 456.8 ± 0.83
20000 kPa, x2 = 0.2729 | 602.5 ± 1.1 | – | 564.4 ± 1 | – | 524.51 ± 0.95
20000 kPa, x2 = 0.5021 | 588.96 ± 1.1 | 569.12 ± 1 | 549.41 ± 0.99 | 528.92 ± 0.95 | –
20000 kPa, x2 = 0.7308 | 574.44 ± 1 | – | 532.72 ± 0.96 | – | –
30000 kPa, x2 = 0.2729 | 612.44 ± 1.1 | – | 577.65 ± 1 | – | –
30000 kPa, x2 = 0.5021 | 599.33 ± 1.1 | 581.32 ± 1.1 | 563.54 ± 1 | 545.35 ± 0.98 | –
30000 kPa, x2 = 0.7308 | 585.33 ± 1.1 | – | 547.73 ± 0.99 | – | –
40000 kPa, x2 = 0.2729 | 621.14 ± 1.1 | – | 588.82 ± 1.1 | – | –
40000 kPa, x2 = 0.5021 | 608.38 ± 1.1 | 591.53 ± 1.1 | 575.17 ± 1 | 558.59 ± 1 | –
40000 kPa, x2 = 0.7308 | 594.97 ± 1.1 | – | 560.18 ± 1 | – | –
50000 kPa, x2 = 0.2729 | 628.91 ± 1.1 | – | 598.52 ± 1.1 | – | –
50000 kPa, x2 = 0.5021 | 616.39 ± 1.1 | 600.55 ± 1.1 | 585.24 ± 1.1 | 569.82 ± 1 | –
50000 kPa, x2 = 0.7308 | 603.42 ± 1.1 | – | 570.96 ± 1 | – | –
60000 kPa, x2 = 0.2729 | 635.9 ± 1.1 | – | 607.13 ± 1.1 | – | –
60000 kPa, x2 = 0.5021 | 623.79 ± 1.1 | 608.7 ± 1.1 | 594.24 ± 1.1 | 579.76 ± 1 | –
60000 kPa, x2 = 0.7308 | 611.1 ± 1.1 | – | 580.28 ± 1.1 | – | –
70000 kPa, x2 = 0.2729 | 642.5 ± 1.2 | – | 614.83 ± 1.1 | – | –
70000 kPa, x2 = 0.5021 | 630.58 ± 1.1 | 616.01 ± 1.1 | 602.33 ± 1.1 | 588.57 ± 1.1 | –
70000 kPa, x2 = 0.7308 | 618.12 ± 1.1 | – | 588.77 ± 1.1 | – | –
80000 kPa, x2 = 0.2729 | 648.79 ± 1.2 | – | 622.08 ± 1.1 | – | –
80000 kPa, x2 = 0.5021 | 636.93 ± 1.1 | 622.84 ± 1.1 | 609.65 ± 1.1 | 596.66 ± 1.1 | –
80000 kPa, x2 = 0.7308 | 624.55 ± 1.1 | – | 596.34 ± 1.1 | – | –
90000 kPa, x2 = 0.2729 | 654.49 ± 1.2 | – | 628.57 ± 1.1 | – | –
90000 kPa, x2 = 0.5021 | 642.73 ± 1.2 | 629.02 ± 1.1 | 616.63 ± 1.1 | 603.93 ± 1.1 | –
90000 kPa, x2 = 0.7308 | 630.61 ± 1.1 | – | 603.52 ± 1.1 | – | –
100000 kPa, x2 = 0.2729 | 659.68 ± 1.2 | – | 634.85 ± 1.1 | – | –
100000 kPa, x2 = 0.5021 | 648.26 ± 1.2 | 635.14 ± 1.1 | 623.18 ± 1.1 | 610.72 ± 1.1 | –
100000 kPa, x2 = 0.7308 | 636.39 ± 1.1 | – | 610.01 ± 1.1 | – | –
120000 kPa, x2 = 0.2729 | 669.67 ± 1.2 | – | 646.16 ± 1.2 | – | –
120000 kPa, x2 = 0.5021 | 658.24 ± 1.2 | 646 ± 1.2 | 634.71 ± 1.1 | 622.95 ± 1.1 | –
120000 kPa, x2 = 0.7308 | 646.6 ± 1.2 | – | 621.8 ± 1.1 | – | –
140000 kPa, x2 = 0.2729 | 678.58 ± 1.2 | – | 656.29 ± 1.2 | – | –
140000 kPa, x2 = 0.5021 | 667.41 ± 1.2 | 655.77 ± 1.2 | 644.69 ± 1.2 | 634.01 ± 1.1 | –
140000 kPa, x2 = 0.7308 | 656.14 ± 1.2 | – | 632.64 ± 1.1 | – | –
160000 kPa, x2 = 0.2729 | 686.88 ± 1.2 | – | 665.5 ± 1.2 | – | –
160000 kPa, x2 = 0.5021 | 675.8 ± 1.2 | 664.45 ± 1.2 | 654.03 ± 1.2 | 643.77 ± 1.2 | –
160000 kPa, x2 = 0.7308 | 664.71 ± 1.2 | – | 642.48 ± 1.2 | – | –
180000 kPa, x2 = 0.2729 | 694.53 ± 1.2 | – | 673.94 ± 1.2 | – | –
180000 kPa, x2 = 0.5021 | 683.54 ± 1.2 | 672.59 ± 1.2 | 662.68 ± 1.2 | 652.74 ± 1.2 | –
180000 kPa, x2 = 0.7308 | 672.47 ± 1.2 | – | 651.07 ± 1.2 | – | –
200000 kPa, x2 = 0.2729 | 701.52 ± 1.3 | – | 681.74 ± 1.2 | – | –
200000 kPa, x2 = 0.5021 | 690.83 ± 1.2 | 680.14 ± 1.2 | 670.56 ± 1.2 | 660.89 ± 1.2 | –
200000 kPa, x2 = 0.7308 | 679.87 ± 1.2 | – | 659.14 ± 1.2 | – | –
